Molecular target: T1, CFTR (Homo sapiens, UniProt P13569, DEL508-508)
T1 construct: endogenous in cells; host or cells: primary human bronchial epithelial cells from CF subjects (F508del/MF-HBE), differentiated at air-liquid interface
Assay: HBE2 assay: Ussing chamber assay of CFTR-mediated short-circuit currents
Assay type: cell-based
Settings: F508del/MF-HBE cells, 18-24 hours, 20% human serum; for Emax: read-out: HBE2 Max activity (%)
Summary of the method: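 F508del/MF-HBE cultured >14 days at air-liquid interface, mounted in Ussing chambers; transepithelial short-circuit current recorded under voltage clamp (Vhold=0 mV) at 37 °C. CFTR-mediated ISC (μA/cm^2) taken as peak forskolin response relative to steady-state current after inhibition; corrector activity assessed this way.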

[1] = 3 μM corrector, with 44 nM potentiator
[2] = corrector at a range of concentrations with 44 nM potentiator

T1 sequence (P13569 with tags, fused parts or gaps DEL508-508): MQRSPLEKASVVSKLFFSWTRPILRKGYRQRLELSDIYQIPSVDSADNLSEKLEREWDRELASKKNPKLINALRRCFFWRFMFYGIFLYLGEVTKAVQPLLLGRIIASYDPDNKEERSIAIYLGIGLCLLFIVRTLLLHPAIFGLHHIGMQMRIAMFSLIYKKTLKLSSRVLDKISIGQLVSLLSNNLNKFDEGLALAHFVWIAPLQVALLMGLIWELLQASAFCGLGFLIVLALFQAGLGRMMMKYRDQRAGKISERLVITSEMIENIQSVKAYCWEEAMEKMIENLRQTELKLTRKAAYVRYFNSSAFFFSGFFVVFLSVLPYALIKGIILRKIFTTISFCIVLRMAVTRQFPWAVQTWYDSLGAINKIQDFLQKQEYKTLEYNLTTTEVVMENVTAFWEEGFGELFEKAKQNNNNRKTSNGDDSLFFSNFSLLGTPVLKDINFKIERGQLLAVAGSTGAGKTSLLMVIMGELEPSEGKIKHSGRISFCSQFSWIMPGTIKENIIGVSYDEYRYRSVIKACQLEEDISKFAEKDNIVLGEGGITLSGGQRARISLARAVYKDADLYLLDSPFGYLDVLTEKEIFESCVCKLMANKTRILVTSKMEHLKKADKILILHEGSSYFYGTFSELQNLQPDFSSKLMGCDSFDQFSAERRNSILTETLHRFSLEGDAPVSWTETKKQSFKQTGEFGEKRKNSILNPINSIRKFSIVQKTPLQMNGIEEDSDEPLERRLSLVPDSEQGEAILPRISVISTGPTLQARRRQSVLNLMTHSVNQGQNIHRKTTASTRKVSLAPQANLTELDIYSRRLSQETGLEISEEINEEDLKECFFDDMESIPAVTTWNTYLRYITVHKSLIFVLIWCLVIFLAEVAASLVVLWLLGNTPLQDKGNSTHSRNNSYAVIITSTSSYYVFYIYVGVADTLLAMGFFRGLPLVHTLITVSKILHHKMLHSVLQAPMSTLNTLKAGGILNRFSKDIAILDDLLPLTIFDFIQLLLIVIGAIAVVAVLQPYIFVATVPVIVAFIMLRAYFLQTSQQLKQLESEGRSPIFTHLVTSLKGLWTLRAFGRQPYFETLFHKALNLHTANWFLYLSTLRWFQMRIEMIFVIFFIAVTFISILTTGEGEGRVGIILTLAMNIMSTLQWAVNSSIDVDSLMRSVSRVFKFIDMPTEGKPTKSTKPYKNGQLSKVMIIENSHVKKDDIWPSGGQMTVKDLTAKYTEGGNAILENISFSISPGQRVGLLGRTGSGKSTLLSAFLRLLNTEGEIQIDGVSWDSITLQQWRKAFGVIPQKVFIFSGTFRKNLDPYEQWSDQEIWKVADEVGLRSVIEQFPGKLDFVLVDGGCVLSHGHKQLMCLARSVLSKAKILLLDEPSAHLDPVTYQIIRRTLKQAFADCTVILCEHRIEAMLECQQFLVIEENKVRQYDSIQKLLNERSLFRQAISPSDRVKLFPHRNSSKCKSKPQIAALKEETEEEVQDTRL

SMILES	HBE2 Activity at 3 μM (%) (3 μM, with 44 nM potentiator)	EC50 (with 44 nM potentiator) [nM]	Emax (with 44 nM potentiator) [%]	further results
Cc1cccc(C)c1-c1cc2nc(n1)NS(=O)(=O)c1cccc(c1)C(=O)N(Cc1cncc(N(C)C3CCC3)n1)[C@H](CC(C)C)CO2 [Compound 1671]	+++ (+++ is >60+)	< 1000	> 60	
CC[C@H](C)N(C)c1cncc(CN2C(=O)c3cccc(c3)S(=O)(=O)Nc3nc(cc(-c4c(C)cccc4C)n3)OC[C@H]2CC(C)(C)C)n1 [Compound 1673]	+++ (+++ is >60+)	< 1000	> 60	
Cc1cccc(C)c1-c1cc2nc(n1)NS(=O)(=O)c1cccc(c1)C(=O)N(Cc1cncc(N3C(=O)CC[C@H]3C)n1)[C@H](CC(C)(C)C)CO2 [Compound 1674]	+++ (+++ is >60+)			
Cc1cccc(C)c1-c1cc2nc(n1)NS(=O)(=O)c1cccc(c1)C(=O)N(Cc1nc(N(C)C3CCC3)cnc1C)[C@H](CC(C)(C)C)CO2 [Compound 1678]	+++ (+++ is >60+)			
Cc1cccc(C)c1-c1cc2nc(n1)NS(=O)(=O)c1cccc(c1)C(=O)N(Cc1cncc(N3CCC[C@@H]4COC[C@@H]43)n1)[C@H](CC(C)(C)C)CO2 [Compound 1680]	+++ (+++ is >60+)			
COC(=O)N1CC2CCN(c3cncc(CN4C(=O)c5cccc(c5)S(=O)(=O)Nc5nc(cc(-c6c(C)cccc6C)n5)OC[C@H]4CC(C)(C)C)n3)C2C1 (stereo partly drawn) [Compound 1681]	+++ (+++ is >60+)			
Cc1cccc(C)c1-c1cc2nc(n1)NS(=O)(=O)c1cccc(c1)C(=O)N(Cc1cncc(N(C)C3CCC3)n1)[C@H](CC1CC3(CCC3)C1)CO2 [Compound 1682]	+++ (+++ is >60+)			
Cc1cccc(C)c1-c1cc2nc(n1)NS(=O)(=O)c1cccc(c1)C(=O)N(Cc1cncc(N(C)C3CCC3)n1)[C@H](CC1(C)CCC1)CO2 [Compound 1683]	+++ (+++ is >60+)	< 1000	> 60	
Cc1cccc(C)c1-c1cc2nc(n1)NS(=O)(=O)c1cccc(c1)C(=O)N(Cc1cncc(N(C)C3CCC3)n1)[C@H](CCC1CC1)CO2 [Compound 1684]	+++ (+++ is >60+)	< 1000	> 60	
Cc1cccc(C)c1-c1cc2nc(n1)NS(=O)(=O)c1cccc(c1)C(=O)N(Cc1cncc(N(C)C3CCC3)n1)[C@H](CCC(C)C)CO2 [Compound 1685]	+++ (+++ is >60+)	< 1000	> 60	
COC(=O)N(C)CCN(C)c1cncc(CN2C(=O)c3cccc(c3)S(=O)(=O)Nc3nc(cc(-c4c(C)cccc4C)n3)OC[C@H]2CC(C)(C)C)n1 [Compound 1686]	+++ (+++ is >60+)			
Cc1cccc(C)c1-c1cc2nc(n1)NS(=O)(=O)c1cccc(c1)C(=O)N(Cc1cncc(N3CC4CC3C4)n1)[C@H](CC(C)(C)C)CO2 [Compound 1687]	+++ (+++ is >60+)			
Cc1cccc(C)c1-c1cc2nc(n1)NS(=O)(=O)c1cccc(c1)C(=O)N(Cc1cncc(N(C)C3CCC3)n1)[C@H](CC1(C(F)(F)F)CC1)CO2 [Compound 1688]	+++ (+++ is >60+)	< 1000	> 60	
Cc1cccc(C)c1-c1cc2nc(n1)NS(=O)(=O)c1cccc(c1)C(=O)N(Cc1cncc(N(C)C3CCC3)n1)[C@H](CC(C)(C)C(F)(F)F)CO2 [Compound 1689]	+++ (+++ is >60+)	< 1000	> 60	
Cc1cccc(C)c1-c1cc2nc(n1)NS(=O)(=O)c1cccc(c1)C(=O)N(Cc1cncc(N(C)C3CCC3)n1)[C@H](C(C)C)CO2 [Compound 1690]	+++ (+++ is >60+)			
Cc1cccc(C)c1-c1cc2nc(n1)NS(=O)(=O)c1cccc(c1)C(=O)N(Cc1cncc(N3CC4CC3(C)C4)n1)[C@H](CC(C)(C)C)CO2 [Compound 1691]	+++ (+++ is >60+)			
Cc1cccc(C)c1-c1cc2nc(n1)NS(=O)(=O)c1cccc(c1)C(=O)N(Cc1cncc(N3CCOC4CCCC43)n1)[C@H](CC(C)(C)C)CO2 (stereo partly drawn) [Compound 1692]	+++ (+++ is >60+)			
COCCCN(C)c1cncc(CN2C(=O)c3cccc(c3)S(=O)(=O)Nc3nc(cc(-c4c(C)cccc4C)n3)OC[C@H]2CC(C)(C)C)n1 [Compound 1693]	+++ (+++ is >60+)			
CCCN(C)c1cncc(CN2C(=O)c3cccc(c3)S(=O)(=O)Nc3nc(cc(-c4c(C)cccc4C)n3)OC[C@H]2CC(C)(C)C)n1 [Compound 1694]	+++ (+++ is >60+)			
CCN(C)c1cncc(CN2C(=O)c3cccc(c3)S(=O)(=O)Nc3nc(cc(-c4c(C)cccc4C)n3)OC[C@H]2CC(C)(C)C)n1 [Compound 1695]	+++ (+++ is >60+)			
Cc1cccc(C)c1-c1cc2nc(n1)NS(=O)(=O)c1cccc(c1)C(=O)N(Cc1cncc(N(C)CCC(C)C)n1)[C@H](CC(C)(C)C)CO2 [Compound 1696]	+++ (+++ is >60+)			

SMILES	HBE2 Activity at 3 μM (%) (3 μM, with 44 nM potentiator)	EC50 (with 44 nM potentiator) [nM]	Emax (with 44 nM potentiator) [%]	further results
CCN(CC)c1cncc(CN2C(=O)c3cccc(c3)S(=O)(=O)Nc3nc(cc(-c4c(C)cccc4C)n3)OC[C@H]2CC(C)(C)C)n1 [Compound 1697]	+++ (+++ is >60+)			
CCCCN(C)c1cncc(CN2C(=O)c3cccc(c3)S(=O)(=O)Nc3nc(cc(-c4c(C)cccc4C)n3)OC[C@H]2CC(C)(C)C)n1 [Compound 1698]	+++ (+++ is >60+)			
Cc1cccc(C)c1-c1cc2nc(n1)NS(=O)(=O)c1cccc(c1)C(=O)N(Cc1cncc(N3CCC3CNC(=O)OC(C)(C)C)n1)[C@H](CC(C)(C)C)CO2 (stereo partly drawn) [Compound 1699]	+++ (+++ is >60+)			
COc1cc(CN2C(=O)c3cccc(c3)S(=O)(=O)Nc3nc(cc(-c4c(C)cccc4C)n3)OC[C@H]2CC(C)(C)C)nc(N(C)C2CCC2)c1 [Compound 1700]	+++ (+++ is >60+)			
Cc1cccc(C)c1-c1cc2nc(n1)NS(=O)(=O)c1cccc(c1)C(=O)N(Cc1cncc(N(C)C3CCC3)n1)[C@H](CC(C)(C)F)CO2 [Compound 1701]		< 1000	> 60	
CC[C@@H](C)[C@@H]1COc2cc(-c3c(C)cccc3C)nc(n2)NS(=O)(=O)c2cccc(c2)C(=O)N1Cc1cncc(N(C)C2CCC2)n1 [Compound 1702]		< 1000	> 60	
CC[C@H](C)[C@@H]1COc2cc(-c3c(C)cccc3C)nc(n2)NS(=O)(=O)c2cccc(c2)C(=O)N1Cc1cncc(N(C)C2CCC2)n1 [Compound 1703]		< 1000	> 60	
CC(C)c1ccccc1-c1cc2nc(n1)NS(=O)(=O)c1cccc(c1)C(=O)N(Cc1cncc(N(C)C3CCC3)n1)[C@H](CC(C)(C)C)CO2 [Compound 1704]	+++ (+++ is >60+)			
Cc1ccccc1-c1cc2nc(n1)NS(=O)(=O)c1cccc(c1)C(=O)N(Cc1cncc(N(C)C3CCC3)n1)[C@H](CC(C)(C)C)CO2 [Compound 1705]	+++ (+++ is >60+)	< 1000	> 60	
COCC1CC2(CCN2c2cncc(CN3C(=O)c4cccc(c4)S(=O)(=O)Nc4nc(cc(-c5c(C)cccc5C)n4)OC[C@H]3CC(C)(C)C)n2)C1 (stereo partly drawn) [Compound 1706]	+++ (+++ is >60+)			
COCC1CC2(CCN2c2cncc(CN3C(=O)c4cccc(c4)S(=O)(=O)Nc4nc(cc(-c5c(C)cccc5C)n4)OC[C@H]3CC(C)(C)C)n2)C1 (stereo partly drawn) [Compound 1707]	+++ (+++ is >60+)			
Cc1cccc(C)c1-c1cc2nc(n1)NS(=O)(=O)c1cccc(c1)C(=O)N(Cc1cncc(N3C[C@H]4CCC[C@H]43)n1)[C@H](CC(C)(C)C)CO2 [Compound 1708]	+++ (+++ is >60+)			
Cc1cccc(C)c1-c1cc2nc(n1)NS(=O)(=O)c1cccc(c1)C(=O)N(Cc1cncc(N(C)CC(C)C)n1)[C@H](CC1CC1)CO2 [Compound 1710]	+++ (+++ is >60+)	< 1000	> 60	
Cc1cccc(C)c1-c1cc2nc(n1)NS(=O)(=O)c1cccc(c1)C(=O)N(Cc1cncc(N(C)CC(C)C)n1)[C@H](CC1(C)CC1)CO2 [Compound 1711]	+++ (+++ is >60+)	< 1000	> 60	
Cc1cccc(C)c1-c1cc2nc(n1)NS(=O)(=O)c1cccc(c1)C(=O)N(Cc1cncc(N(C)CC(C)C)n1)[C@H](CC1CCC1)CO2 [Compound 1712]			> 60	HBE2 Activity at 3 μM (%) [1]: +++ (+++ is >60+); EC50 [2]: < 1000 nM
Cc1cccc(C)c1-c1cc2nc(n1)NS(=O)(=O)c1cccc(c1)C(=O)N(Cc1cncc(N(C)CC(C)C)n1)[C@H](CC(C)C)CO2 [Compound 1713]				HBE2 Activity at 3 μM (%) [1]: +++ (+++ is >60+)
Cc1cccc(C)c1-c1cc2nc(n1)NS(=O)(=O)c1cccc(c1)C(=O)N(Cc1cnc(C)c(N(C)C3CCC3)n1)[C@H](CC(C)(C)C)CO2 [Compound 1714]				HBE2 Activity at 3 μM (%) [1]: +++ (+++ is >60+)
Cc1cccc(C)c1-c1cc2nc(n1)NS(=O)(=O)c1cccc(c1)C(=O)N(Cc1nccc(N(C)C(C)C)n1)[C@H](CCC(C)(C)C)CO2 [Compound 1715]				HBE2 Activity at 3 μM (%) [1]: +++ (+++ is >60+)
Cc1cccc(C)c1-c1cc2nc(n1)NS(=O)(=O)c1cccc(c1)C(=O)N(Cc1cncc(N3CCC[C@H]3C(C)C)n1)[C@H](CCC(C)(C)C)CO2 [Compound 1716]			> 60	HBE2 Activity at 3 μM (%) [1]: +++ (+++ is >60+); EC50 [2]: < 1000 nM
Cc1cccc(C)c1-c1cc2nc(n1)NS(=O)(=O)c1cccc(c1)C(=O)N(Cc1cncc(N(C)CC(C)C)n1)[C@H](CCC1CC1)CO2 [Compound 1717]				HBE2 Activity at 3 μM (%) [1]: +++ (+++ is >60+)
Cc1cccc(C)c1-c1cc2nc(n1)NS(=O)(=O)c1cccc(c1)C(=O)N(Cc1cncc(N(C)C(C)C)n1)[C@H](CCC1CC1)CO2 [Compound 1718]				HBE2 Activity at 3 μM (%) [1]: +++ (+++ is >60+)
